Assay results reported in patent US9643946B2, “Tricyclic compound and use thereof” (SK CHEMICALS CO., LTD., priority 2013, dated 2017).
pIC50: −log10 of the molar value.

Target: human GPR40 protein (Homo sapiens, UniProt O14842)
Test: GPR40 agonist binding inhibition (displacement of 3H-labeled propanoic acid radioligand)
Settings: membrane protein including human GPR40, 3H-labeled propanoic acid radioligand, 25° C., 2 hours; read-out: Half maximal inhibitory concentration
Experimental: Measurement of 50% Inhibitory Concentration (ID50) for GPR40 Agonist Binding
To examine the efficacy of the compounds according to one exemplary embodiment of the present invention in modulating GPR40, the half maximal inhibitory concentrations (IC50) of the compounds according to one exemplary embodiment of the present invention were measured by Microbeta2™ (PerkinElmer Inc.) using a change in radiation dose emitted from ^3H-labeled propanoic acid (i.e., 3-(4-((2,6′-dimethyl-6-((4-(^3H))-phenylmethoxy)biphenyl-3-yl)methoxy)phenyl)propanoic acid), which is a radioactive isotope which binds to a human GPR40 protein, as an indicator.
Specifically, a test compound was prepared by serial dilution with DMSO, and 100 μL of a binding buffer (including 25 mM HEPES (pH 7.5), 5 mM MgCl2, 100 mM NaCl, and 0.1% free fatty acid BSA; Sigma-Aldrich Corp.) was put into each well of a 96-well transparent plate. Thereafter, each of the diluted compound, propanoic acid which was prepared by dissolving propanoic acid in DMSO to a concentration of 500 mM and not labeled with a radioactive isotope, and DMSO was dispensed at 5 μL per well. ^3H-labeled propanoic acid was dissolved in a binding buffer at a concentration of 1 nM and dispensed at 50 μL into the corresponding wells, and a membrane protein including a human GPR40 protein was dissolved in a binding buffer at a concentration of 20 μg/well and dispensed at 100 μL, into the corresponding wells.
After the dispensation was completed, the plate was incubated at a temperature of 25° C. and a rotary speed of 230 rpm for 2 hours while shaking. A human GPR40 complex was transferred to Filtermat A (PerkinElmer Inc.) using a cell harvester (PerkinElmer Inc.), washed 10 times with 50 mM tris-HCl, dried, and then scintillated using Meltilex (PerkinElmer Inc.). Thereafter, an emitted radiation dose was measured using Microbeta2™. The radiation doses emitted from the complex in the well containing 10 mM unlabeled propanoic acid and the complex in the well containing DMSO alone were set as 0% and 100%, respectively. Thus, a change curve for each of the radiation doses was plotted to calculate the half maximal inhibitory concentration of the test compound.

Chain of human GPR40 protein (O14842 whole entry): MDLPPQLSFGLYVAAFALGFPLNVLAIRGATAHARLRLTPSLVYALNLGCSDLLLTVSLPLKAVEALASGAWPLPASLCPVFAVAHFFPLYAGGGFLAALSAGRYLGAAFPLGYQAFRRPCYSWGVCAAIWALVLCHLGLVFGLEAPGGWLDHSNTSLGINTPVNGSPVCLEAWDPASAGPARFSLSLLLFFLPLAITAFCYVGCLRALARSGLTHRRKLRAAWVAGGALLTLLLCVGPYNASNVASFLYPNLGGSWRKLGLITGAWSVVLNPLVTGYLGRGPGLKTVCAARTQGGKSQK

In order of falling pIC50:
1. CC#C[C@@H](CC(=O)O)c1ccc(OCc2ccc3c(c2)-c2ccc(OCC4CCS(=O)(=O)CC4)cc2CCC3)cc1 [Example 109, (S)-3-(4-((9-((1,1-dioxidotetrahydro-2H-thiopyran-4-yl)methoxy)-6,7-dihydro-5H-dibenzo[a,c][7]annulen-2-yl)methoxy)phenyl)hex-4-ynoic acid]  8.25
2. Cc1cc(OC2CCS(=O)(=O)CC2)cc2c1-c1cc(CNc3ccc([C@H]4C[C@@H]4C(=O)O)cc3)ccc1CCC2 [Example 76, (1S,2S)-2-(4-(((9-((1,1-dioxidotetrahydro-2H-thiopyran-4-yl)oxy)-11-methyl-6,7-dihydro-5H-dibenzo[a,c][7]annulen-2-yl)methyl)amino)phenyl)cyclopropanecarboxylic acid]  7.83
3. CCS(=O)(=O)CCCOc1ccc2c(c1)CCCc1cc(F)c(CNc3ccc([C@H]4C[C@@H]4C(=O)O)cc3)cc1-2 [Example 105, (1S,2S)-2-(4-(((9-(3-(ethylsulfonyl)propoxy)-3-fluoro-6,7-dihydro-5H-dibenzo[a,c][7]annulen-2-yl)methyl)amino)phenyl)cyclopropanecarboxylic acid]  7.79
4. Cc1cc(OCCCS(C)(=O)=O)cc2c1-c1cc(COc3ccc4c(c3)OC[C@H]4CC(=O)O)ccc1OCC2 [Example 14, 2-((3S)-6-((11-methyl-9-(3-(methylsulfonyl)propoxy)-6,7-dihydrodibenzo[b,d]oxepin-2-yl)methoxy)-2,3-dihydrobenzofuran-3-yl)acetic acid]  7.75
5. CCS(=O)(=O)CCCOc1cc(C)c2c(c1)CCCc1ccc(COc3ccc([C@H]4C[C@@H]4C(=O)O)cc3)cc1-2 [Example 61, (1S,2S)-2-(4-((9-(3-(ethylsulfonyl)propoxy)-11-methyl-6,7-dihydro-5H-dibenzo[a,c][7]annulen-2-yl)methoxy)phenyl)cyclopropanecarboxylic acid]  7.58
6. CCS(=O)(=O)CCCOc1cc(C)c2c(c1)CCOc1ccc(COc3ccc4c(c3)OC[C@H]4CC(=O)O)cc1-2 [Example 38, 2-((3S)-6-((9-(3-(ethylsulfonyl)propoxy)-11-methyl-6,7-dihydrodibenzo[b,d]oxepin-2-yl)methoxy)-2,3-dihydrobenzofuran-3-yl)acetic acid]  7.41
7. Cc1cc(OCCCS(C)(=O)=O)cc2c1-c1cc(COc3ccc([C@H]4C[C@@H]4C(=O)O)cc3)ccc1CC2 [Example 31, (1S,2S)-2-(4-((5-methyl-7-(3-(methylsulfonyl)propoxy)-9,10-dihydrophenanthren-3-yl)methoxy)phenyl)cyclopropanecarboxylic acid]  7.34
8. CC1(COc2ccc3c(c2)CCCc2ccc(COc4ccc5c(c4)OC[C@H]5CC(=O)O)cc2-3)CCS(=O)(=O)CC1 [Example 93, (S)-2-(6-((9-((4-methyl-1,1-dioxidotetrahydro-2H-thiopyran-4-yl)methoxy)-6,7-dihydro-5H-dibenzo[a,c][7]annulen-2-yl)methoxy)-2,3-dihydrobenzofuran-3-yl)acetic acid]  7.30
9. Cc1cc(OCC2CCS(=O)(=O)CC2)cc2c1-c1cc(COc3ccc4c(c3)OC[C@H]4CC(=O)O)ccc1OCC2 [Example 47, 2-((3S)-6-((9-((1,1-dioxidotetrahydro-2H-thiopyran-4-yl)methoxy)-11-methyl-6,7-dihydrodibenzo[b,d]oxepin-2-yl)methoxy)-2,3-dihydrobenzofuran-3-yl)acetic acid]  7.27
10. Cc1cc(OC2CCS(=O)(=O)CC2)cc2c1-c1cc(COc3ccc([C@H]4C[C@@H]4C(=O)O)cc3)ccc1CCC2 [Example 59, (1S,2S)-2-(4-((9-((1,1-dioxidotetrahydro-2H-thiopyran-4-yl)oxy)-11-methyl-6,7-dihydro-5H-dibenzo[a,c][7]annulen-2-yl)methoxy)phenyl)cyclopropanecarboxylic acid]  7.15
11. CCN1CCc2cc(OCCCS(C)(=O)=O)ccc2-c2cc(COc3ccc4c(c3)OC[C@H]4CC(=O)O)ccc21 [Example 44, (S)-2-(6-((5-ethyl-9-(3-(methylsulfonyl)propoxy)-6,7-dihydro-5H-dibenzo[b,d]azepin-2-yl)methoxy)-2,3-dihydrobenzofuran-3-yl)acetic acid]  7.12
12. C[C@@H]1Cc2cc(OCCCS(C)(=O)=O)ccc2-c2cc(COc3ccc4c(c3)OC[C@H]4CC(=O)O)ccc2O1 [Example 79, 2-((S)-6-(((R)-6-methyl-9-(3-(methylsulfonyl)propoxy)-6,7-dihydrodibenzo[b,d]oxepin-2-yl)methoxy)-2,3-dihydrobenzofuran-3-yl)acetic acid]  7.07
13. CS(=O)(=O)CCCOc1ccc2c(c1)CCCc1ccc(COc3ccc([C@H]4C[C@@H]4C(=O)O)cc3)cc1-2 [Example 25, (1S,2S)-2-(4-((9-(3-(methylsulfonyl)propoxy)-6,7-dihydro-5H-dibenzo[a,c][7]annulen-2-yl)methoxy)phenyl)cyclopropanecarboxylic acid]  6.99
14. CCS(=O)(=O)CCCOc1cc(C)c2c(c1)CCOc1ccc(COc3ccc([C@H]4C[C@@H]4C(=O)O)c(F)c3)cc1-2 [Example 41, (1S,2S)-2-(4-((9-(3-(ethylsulfonyl)propoxy)-11-methyl-6,7-dihydrodibenzo[b,d]oxepin-2-yl)methoxy)-2-fluorophenyl)cyclopropanecarboxylic acid]  6.90
15. O=C(O)C[C@@H]1COc2cc(OCc3ccc4c(c3)-c3ccc(OCC5(O)CCS(=O)(=O)CC5)cc3CCC4)ccc21 [Example 65, (S)-2-(6-((9-((4-hydroxy-1,1-dioxidotetrahydro-2H-thiopyran-4-yl)methoxy)-6,7-dihydro-5H-dibenzo[a,c][7]annulen-2-yl)methoxy)-2,3-dihydrobenzofuran-3-yl)acetic acid]  6.80
16. Cc1cc(OCCCS(C)(=O)=O)cc2c1-c1cccc(COc3ccc4c(c3)OC[C@H]4CC(=O)O)c1CCC2 [Example 1, 2-((3S)-6-((11-methyl-9-(3-(methylsulfonyl)propoxy)-6,7-dihydro-5H-dibenzo[a,c][7]annulen-4-yl)methoxy)-2,3-dihydrobenzofuran-3-yl)acetic acid]  6.80
17. Cc1nc(N2CCOCC2)nc2c1-c1cc(COc3ccc4c(c3)OC[C@H]4CC(=O)O)ccc1CCC2 [Example 81, 2-((3S)-6-((1-methyl-3-morpholino-6,7-dihydro-5H-benzo[3,4]cyclohepta[1,2-d]pyrimidin-10-yl)methoxy)-2,3-dihydrobenzofuran-3-yl)acetic acid]  6.74
18. CS(=O)(=O)CCCOc1ccc2c(c1)COCc1ccc(CNc3ccc([C@H]4C[C@@H]4C(=O)O)cc3)cc1-2 [Example 18, (1S,2S)-2-(4-(((9-(3-(methylsulfonyl)propoxy)-5,7-dihydrodibenzo[c,e]oxepin-2-yl)methyl)amino)phenyl)cyclopropanecarboxylic acid]  6.12

Test system: male ZFDM rats
Test: Hypoglycemic rate after oral glucose loading in rats
Assay type: in vivo, rat
Settings: oral 0.1 to 30 mg/kg one hour before glucose loading (1.5 g/kg), blood glucose AUC 0 to 120 minutes versus control
Experimental: Measurement of Hypoglycemic Rate in Rats
An effect of the compound according to one exemplary embodiment of the present invention on blood glucose inhibition after glucose loading was examined in male ZFDM rats (Japan SLC, Inc.).
Specifically, male ZFDM rats (7 week-old) pre-fed for a week were fasted overnight, and used as an animal to be tested. A test compound was prepared into a 0.5% methylcellulose suspension, which was orally administered to rats at a dose of 0.1 to 30 mg/kg before an hour of glucose loading (1.5 g/kg). As the control, 0.5% methylcellulose was administered. After the glucose administration, blood was drawn from the rats' tails after 0, 15, 30, 60 and 120 minutes to measure a blood glucose level. The area under the curve (AUC) for compound treatment was calculated using a blood glucose change profile from t=0 to 120 minutes, and a hypoglycemic rate (%) for the control was calculated.

In order of rising Hypoglycemic rate:
1. CCS(=O)(=O)CCCOc1cc(C)c2c(c1)CCCc1ccc(COc3ccc4c(c3)OC[C@H]4CC(=O)O)cc1-2 [Example 57, 2-((3S)-6-((9-(3-(ethylsulfonyl)propoxy)-11-methyl-6,7-dihydro-5H-dibenzo[a,c][7]annulen-2-yl)methoxy)-2,3-dihydrobenzofuran-3-yl)acetic acid]  21.7%
2. O=C(O)[C@H]1C[C@@H]1c1ccc(NCc2ccc3c(c2)-c2ccc(OCC4CCS(=O)(=O)CC4)cc2CCC3)cc1 [Example 78, (1S,2S)-2-(4-(((9-((1,1-dioxidotetrahydro-2H-thiopyran-4-yl)methoxy)-6,7-dihydro-5H-dibenzo[a,c][7]annulen-2-yl)methyl)amino)phenyl)cyclopropanecarboxylic acid]  27.4%
3. Cc1cc(OCCCS(C)(=O)=O)cc2c1-c1cc(COc3ccc4c(c3)OC[C@H]4CC(=O)O)ccc1OC2 [Example 26, (S)-2-(6-((10-methyl-8-(3-(methylsulfonyl)propoxy)-6H-benzo[c]chromen-2-yl)methoxy)-2,3-dihydrobenzofuran-3-yl)acetic acid]  31.0%
